The supplement of paper PMC10307832

Key:
Assay in all cases: relative viability (nuclei count vs DMSO), 5 days (fraction); higher = more cells survive
Bleomycin + Trametinib = compound: CC1=C(N=C(N=C1N)[C@H](CC(=O)N)NC[C@@H](C(=O)N)N)C(=O)N[C@@H]([C@H](C2=CN=CN2)OC3C(C(C(C(O3)CO)O)O)OC4C(C(C(C(O4)CO)O)OC(=O)N)O)C(=O)N[C@H](C)[C@H]([C@H](C)C(=O)N[C@@H]([C@@H](C)O)C(=O)NCCC5=NC(=CS5)C6=NC(=CS6)C(=O)NCCC[S+](C)C)O [Bleomycin] + CC(=O)Nc1cccc(-n2c(=O)n(C3CC3)c(=O)c3c(Nc4ccc(I)cc4F)n(C)c(=O)c(C)c32)c1 [Trametinib] (partner 0.02 µM); settings: main component drawn
Outline: (§1)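 Dosing by pin tool came one day after lung cancer cell lines were seeded in 1536-well plates, using either one drug or a fixed anchor-drug dose plus five library-drug doses (not always all listed) in √10 steps. After 5 days, nuclei were counted on 4× images. Relative viability is treated-well nuclei count divided by vehicle-well nuclei count, and values are medians of duplicate plates.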

Etoposide = compound: COc1cc([C@@H]2c3cc4c(cc3[C@@H](O[C@@H]3O[C@@H]5CO[C@@H](C)O[C@H]5[C@H](O)[C@H]3O)[C@H]3COC(=O)[C@H]23)OCO4)cc(OC)c1O [Etoposide]
Outline: (§2)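 Five library-drug doses, separated by factors of √10, were pinned into 1536-well plates holding lung cancer cell lines after an overnight stay at 37 °C. Cells were fixed, permeabilised and Hoechst-stained in one step after 5 days without medium change, then imaged at 4×. Viability compares treated-well with vehicle-well nuclei, counted in MetaXpress, as a median across plates. Passing plates had control CV below 25% and at least one doubling.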

Bleomycin = compound: CC1=C(N=C(N=C1N)[C@H](CC(=O)N)NC[C@@H](C(=O)N)N)C(=O)N[C@@H]([C@H](C2=CN=CN2)OC3C(C(C(C(O3)CO)O)O)OC4C(C(C(C(O4)CO)O)OC(=O)N)O)C(=O)N[C@H](C)[C@H]([C@H](C)C(=O)N[C@@H]([C@@H](C)O)C(=O)NCCC5=NC(=CS5)C6=NC(=CS6)C(=O)NCCC[S+](C)C)O [Bleomycin]; settings: main component drawn
Outline: as §2

Etoposide + Navitoclax = compound: COc1cc([C@@H]2c3cc4c(cc3[C@@H](O[C@@H]3O[C@@H]5CO[C@@H](C)O[C@H]5[C@H](O)[C@H]3O)[C@H]3COC(=O)[C@H]23)OCO4)cc(OC)c1O [Etoposide] + CC1(C)CCC(c2ccc(Cl)cc2)=C(CN2CCN(c3ccc(C(=O)NS(=O)(=O)c4ccc(N[C@H](CCN5CCOCC5)CSc5ccccc5)c(S(=O)(=O)C(F)(F)F)c4)cc3)CC2)C1 [Navitoclax] (partner 0.5 µM)
Outline: as §1

| Cell Line | relative viability (Bleomycin + Trametinib; first compound 0.01 µM) | relative viability (Bleomycin + Trametinib; first compound 0.03162 µM) | relative viability (Bleomycin + Trametinib; first compound 0.1 µM) | relative viability (Bleomycin + Trametinib; first compound 0.3162 µM) | relative viability (Bleomycin + Trametinib; first compound 1 µM) | relative viability (Etoposide; 0.01 µM) | relative viability (Etoposide; 0.03162 µM) | relative viability (Etoposide; 0.1 µM) | relative viability (Etoposide; 0.3162 µM) | relative viability (Etoposide; 1 µM) | relative viability (Bleomycin; 0.01 µM) | relative viability (Bleomycin; 0.03162 µM) | relative viability (Bleomycin; 0.1 µM) | relative viability (Bleomycin; 0.3162 µM) | relative viability (Bleomycin; 1 µM) | relative viability (Etoposide + Navitoclax; first compound 0.01 µM) | relative viability (Etoposide + Navitoclax; first compound 0.03162 µM) | relative viability (Etoposide + Navitoclax; first compound 0.1 µM) | relative viability (Etoposide + Navitoclax; first compound 0.3162 µM) | relative viability (Etoposide + Navitoclax; first compound 1 µM) |
| --- | --- | --- | --- | --- | --- | --- | --- | --- | --- | --- | --- | --- | --- | --- | --- | --- | --- | --- | --- | --- |
| NCI-H2342 | 0.896 | 0.737 | 0.758 | 0.577 | 0.576 | 1.04 | 1.03 | 0.533 | 0.38 | 0.34 | 1.02 | 0.999 | 0.968 | 0.759 | 0.653 | – | – | – | – | – |
| SK-MES-1 | 0.501 | 0.532 | 0.527 | 0.28 | 0.219 | 0.978 | 1.06 | 0.9 | 0.587 | 0.258 | 0.861 | 0.885 | 0.77 | 0.371 | 0.262 | 1.14 | 1.23 | 0.913 | 0.532 | 0.211 |
| NCI-H2087 | 0.204 | 0.146 | 0.176 | 0.177 | 0.135 | 0.967 | 1.11 | 0.978 | 0.78 | 0.259 | 0.822 | 1.06 | 0.851 | 0.257 | 0.235 | – | 1.05 | 0.941 | 0.727 | 0.264 |
| HCC-366 | 0.219 | 0.144 | 0.147 | 0.0475 | 0.0448 | 0.992 | 1.07 | 0.769 | 0.377 | 0.0702 | 0.923 | 0.722 | 0.591 | 0.182 | 0.0724 | 0.923 | 1.05 | 0.864 | 0.306 | 0.0332 |
| 201T | 0.697 | 0.731 | 0.673 | 0.598 | 0.555 | 0.906 | 0.988 | 0.845 | 0.881 | 0.526 | 0.909 | 0.95 | 0.922 | 0.756 | 0.634 | 1.25 | 1.23 | 1.13 | 1.14 | 1.02 |
| HCC-827 | 0.495 | – | 0.502 | 0.273 | 0.209 | 1.07 | 1.08 | 0.965 | 0.659 | 0.258 | 0.983 | 1.08 | 0.9 | 0.577 | 0.277 | 1.03 | 0.985 | 0.956 | 0.613 | 0.331 |
| NCI-H650 | 0.909 | 0.993 | 0.8 | 0.352 | 0.18 | 0.949 | 0.98 | 0.68 | 0.561 | 0.256 | 0.743 | 1.11 | 0.768 | 0.492 | 0.242 | – | – | – | – | – |
| NCI-H2023 | 0.277 | 0.383 | 0.363 | 0.148 | 0.129 | 0.868 | 1.02 | 0.599 | 0.465 | 0.148 | 0.698 | 0.68 | 0.517 | 0.21 | 0.142 | 0.99 | 0.964 | 0.929 | 0.423 | 0.347 |
| NCI-H596 | 0.674 | 0.562 | 0.423 | 0.38 | 0.379 | 0.866 | 1.03 | 0.685 | 0.877 | 0.734 | 0.775 | 0.754 | 0.637 | 0.377 | 0.412 | 0.977 | 0.989 | – | 0.87 | 0.642 |
| SK-LU-1 | 0.415 | 0.487 | 0.464 | 0.43 | 0.392 | 0.99 | 1.03 | 0.67 | 0.413 | 0.264 | 0.897 | 1.01 | 0.909 | 0.588 | 0.411 | 0.633 | 0.975 | 0.468 | 0.144 | 0.166 |
| A-427 | 0.607 | 0.558 | 0.417 | 0.261 | 0.212 | 0.968 | 1.12 | 0.699 | 0.612 | 0.237 | 0.795 | 0.811 | 0.748 | 0.326 | 0.2 | 0.963 | 0.937 | 0.525 | 0.53 | 0.256 |
| NCI-H460 | 0.107 | 0.0848 | 0.0692 | 0.0357 | 0.0155 | 0.899 | 0.933 | 0.785 | 0.164 | 0.0591 | 0.738 | 0.661 | 0.483 | 0.0877 | 0.0714 | 0.93 | 0.796 | 0.6 | 0.0627 | 0.0154 |
| NCI-H1703 | – | – | – | – | – | 0.761 | 1.03 | 0.75 | 0.711 | 0.371 | 0.928 | 0.895 | 0.826 | 0.381 | 0.272 | 1.04 | 1.12 | 0.575 | 0.527 | 0.307 |
| NCI-H1792 | 0.462 | 0.396 | 0.356 | 0.317 | 0.189 | 1.01 | 1.22 | 0.522 | 0.816 | 0.416 | 0.755 | 1.03 | 0.733 | 0.387 | 0.421 | 0.716 | 0.59 | 0.507 | 0.567 | 0.394 |
